Assay [1] concerns human placental aromatase. Particulars: in vitro; for 5α-DHNET a partial inhibition; cited from earlier work.
The next assay deals with T1, rat ovarian aromatase (Rattus norvegicus, UniProt P22443).
T1 construct: from tissue; host or cells: ovaries of BUF/N inbred female rats, 105,000 x g precipitate of the homogenate
T1 sequence (P22443 1-508): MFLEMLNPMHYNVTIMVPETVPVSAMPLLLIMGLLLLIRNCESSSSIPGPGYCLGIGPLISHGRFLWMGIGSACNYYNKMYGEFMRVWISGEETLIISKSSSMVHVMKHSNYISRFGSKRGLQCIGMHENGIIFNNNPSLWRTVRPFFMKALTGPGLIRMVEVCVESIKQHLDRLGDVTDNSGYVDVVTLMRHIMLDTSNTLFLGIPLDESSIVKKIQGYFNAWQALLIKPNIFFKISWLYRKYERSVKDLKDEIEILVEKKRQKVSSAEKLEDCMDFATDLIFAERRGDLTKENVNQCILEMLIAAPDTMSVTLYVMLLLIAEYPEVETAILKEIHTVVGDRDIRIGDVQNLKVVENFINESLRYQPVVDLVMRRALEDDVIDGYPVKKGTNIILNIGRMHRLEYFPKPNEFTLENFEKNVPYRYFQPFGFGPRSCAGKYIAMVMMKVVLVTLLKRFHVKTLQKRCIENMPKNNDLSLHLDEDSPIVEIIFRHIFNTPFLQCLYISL
In words: in vivo effect on rat ovarian aromatase activity (3H-water method). Particulars: for suppression of the ovarian aromatase activity: 50 mg/kg body weight/day s.c. twice daily for four days, 4-day cycling BUF/N rats; for in vivo ovarian aromatase inactivation: Example 7, 50 mg/kg body weight/day, regularly cycling BUF/N rats, compared to sesame oil control. The protocol: 5α-DHNET (30 mg/ml sesame oil suspension) was injected s.c. twice daily for four days at a dose of 50 mg/kg body weight/day to BUF/N inbred female rats (50-80 days old) showing regular 4-day estrus cycles starting on the estrus day. The control group received injections of sesame oil in the same manner. Both ovaries were removed 3-4 hours after the final injection. The 105,000×g precipitate fraction of the ovarian homogenate was used for the aromatase assay. Aromatase activity was determined by the ^3 H-water method (F. L. Bellino, S. S. H. Gilani, S. S. Eng, Y. Osawa and W. L. Duax, Biochemistry, 15, 4730-4736 (1976)). The sedimented ovarian enzyme preparation was homogenized in 0.1 M phosphate buffer (pH 7.5) and incubated with [1β-^3 H, 4-^14 C]androstenedione (3.18×10^5 dpm ^3 H, 1.18×10^4 dpm ^14 C, 100.2 ng), NADPH (1 mg) and BSA (5 mg) in 0.1 M phosphate buffer (pH 7.5) in a total volume of 1.5 ml for 30 min at 37° C. Trichloroacetic acid solution (0.2 ml of 10% aqueous solution) was added to stop the enzyme reaction. Activated charcoal was added to the mixture and the spun supernatant was passed through a cotton plugged disposable pipet. The filtrate was counted for simultaneous ^3 H and ^14 C in a liquid scintillation spectrophotometer. The ^3 H-water released from the 1β-^3 H labeled androgen quantitatively corresponds to estrogen formation. The results of the in vivo aromatase suppression assay with 5α-DHNET, 6β-bromoandrostenedione (6β-BRA), and 6α-bromoandrostenedione (6α-BRA) are given in FIGS. 3, 4, and 5, respectively. 5α-DHNET suppressed 67% of the ovarian aromatase, whereas 6β-bromoandrostenedione suppressed 72% and 6α-bromoandrostenedione only an insignificant 10%.
A test of the acetate (C2) and n-butyrate (C4) on the in vivo effect on Ovarian Aromatase Activity was conducted. […] All procedures are the same as described in the above examples. […] The slightly better results obtained with the N-butyrate may be due to its higher solubility in sesame oil, indicating a higher retention in the body.

Assay [2] deals with estrus cycle of BUF/N inbred female rats. In words: effect on the rat estrus cycle. Particulars: single s.c. dose 50 mg/kg body weight on proestrus day; 50 mg/kg. The format is in vivo. The protocol: BUF/N inbred female rats (50-80 days old) showing regular 4-day estrus cycles were selected by a daily vaginal smear test. A fine powder of the steroid sample was suspended in sesame oil (30 mg/ml) and injected subcutaneously on the proestrus day at a single dose of 50 mg/kg body weight. Vaginal smears were examined daily until normal estrus returned for at least three cycles. The results from the single injection of 5α-DHNET are given in FIG. 1 and those for 6β-bromoandrostenedione are given in FIG. 2 for comparison.

Results on four compounds are retold here after US4997827A, “Compositions containing 5-α-dihydro-19-norethisterone and derivatives thereof for in vivo inhibition of aromatase” (Medical Foundation of Buffalo, Inc., priority 1989, dated 1991).

Entries after “also recorded” stand apart in the source; their conditions may differ.

As for `C[C@]12CCC(=O)C=C1[C@@H](Br)C[C@@H]1[C@@H]2CC[C@]2(C)C(=O)CC[C@@H]12` [6α-bromoandrostenedione, reference compound], the “concentration for inhibition of human placental aromatase in vitro” value in assay [1] is 0.0082 µM. In addition, the “suppression of the ovarian aromatase activity” value at rat ovarian aromatase was 10%.
On to `C#C[C@]1(OC(C)=O)CC[C@H]2[C@@H]3CC[C@H]4CC(=O)CC[C@@H]4[C@H]3CC[C@@]21C` [5α-DHNET Ac, 5α-DHNET acetate], for which the “in vivo ovarian aromatase inactivation” value at rat ovarian aromatase stood at 68.2%.
For the compound `C[C@]12CCC(=O)C=C1[C@H](Br)C[C@@H]1[C@@H]2CC[C@]2(C)C(=O)CC[C@@H]12` [6β-bromoandrostenedione, reference compound], the “concentration for inhibition of human placental aromatase in vitro” value in assay [1] was 0.056 µM. For the same compound, the “effect on the estrus cycle” value in assay [2] is listed as “no effect on the cycle; also recorded: failed to affect the estrus cycle”. On rat ovarian aromatase, the “suppression of the ovarian aromatase activity” value is 72%.
For `C#C[C@]1(OC(=O)CCC)CC[C@H]2[C@@H]3CC[C@H]4CC(=O)CC[C@@H]4[C@H]3CC[C@@]21C` [5α-DHNET But, 5α-DHNET butyrate], the “in vivo ovarian aromatase inactivation” value on rat ovarian aromatase was 79.4%.
